Structures can show the parent of a compound that is named as a salt. Starred links: 1 amine or outer side, 2 acyl side, 3 side chain; linkers in the order of their positions; H or OH if unused. Positions of bridges follow the written chain, without caps; N, C: chain ends. Non-standard residues stand in square brackets, D forms with d. Residues, ends and D or L forms follow the SMILES beside them. Chains are numbered I, II in the order given. *: point of attachment. TATA = O=C(CC[*:1])N1CN(C(=O)CC[*:2])CN(C(=O)CC[*:3])C1; Dolaproine = CO[C@@H]([C@@H]1CCCN1)[C@@H](C)C(=O)O; Dil = CC[C@H](C)[C@H](NC)[C@@H](CC(=O)O)OC; 1Nal = N[C@@H](Cc1cccc2ccccc12)C(=O)O; X2 = O=C(CCCC(=O)[*:2])NCCC(=O)[*:1]; PABC = O=C(OCc1ccc(N[*:1])cc1)[*:2]; X1 = C[C@@H](N*)[C@@H](O)c1ccccc1; Hyp = O=C(O)[C@@H]1C[C@@H](O)CN1; hArg = N=C(N)NCCCC[C@H](N)C(=O)O; Cit = NC(=O)NCCC[C@H](N)C(=O)O; Pen = CC(C)(S)[C@H](N)C(=O)O; NMeV = CN[C@H](C(=O)O)C(C)C; hCys = N[C@@H](CCS)C(=O)O; Sar = CNCC(=O)O
Experiments:
[1] = Pharmacokinetic analysis in rat plasma; assay type: in vivo, SD rats
Method: Test Example 5: Pharmacokinetic Analysis of the Compounds of the Present Invention in Rat Plasma
To test the pharmacokinetics of the compounds of the present invention in SD rats.
(§1) The pharmacokinetic characteristics of the compound after intravenous injection were tested in rats according to a standard protocol. The compound to be tested was formulated into a clear solution using 25 mM L-histidine (pH=7) in 10% sucrose as a vehicle. Two rats were given a single intravenous injection of 3 mg/kg of the compound to be tested. Whole blood was collected at time points of 0.083, 0.25, 0.5, 1, 2, 4, 8, and 24 hours after administration to get plasma. The concentration of the compound of the present invention and the concentration of its potential metabolite MMAE were analyzed by the LC-MS/MS method, and the pharmacokinetic parameters were calculated by Phoenix WinNonlin software.

[2] = Pharmacokinetic analysis in Cynomolgus macaque plasma; assay type: in vivo; settings: Cynomolgus macaques, single IV 1 mg/kg of the compound
Method: Test Example 6: Pharmacokinetic Analysis in Cynomolgus Macaque Plasma
To test the pharmacokinetics of the compounds of the present invention in Cynomolgus macaques.
as §1, with “tested” for “tested in rats”, “standard protocol in Cynomolgus macaques.” for “standard protocol.”, “vehicle. Cynomolgus macaques” for “vehicle. Two rats”, “of 1” for “of 3”, “compound to be tested” for “compound of the present invention”

[3] = target: T1, Human Nectin-4 (Homo sapiens, UniProt Q96NY8); experiment: Binding capacity to Nectin-4 protein (SPR, Biacore 8K)
T1 construct: purchased GE Healthcare 1006-72
T1 sequence (Q96NY8 32-510): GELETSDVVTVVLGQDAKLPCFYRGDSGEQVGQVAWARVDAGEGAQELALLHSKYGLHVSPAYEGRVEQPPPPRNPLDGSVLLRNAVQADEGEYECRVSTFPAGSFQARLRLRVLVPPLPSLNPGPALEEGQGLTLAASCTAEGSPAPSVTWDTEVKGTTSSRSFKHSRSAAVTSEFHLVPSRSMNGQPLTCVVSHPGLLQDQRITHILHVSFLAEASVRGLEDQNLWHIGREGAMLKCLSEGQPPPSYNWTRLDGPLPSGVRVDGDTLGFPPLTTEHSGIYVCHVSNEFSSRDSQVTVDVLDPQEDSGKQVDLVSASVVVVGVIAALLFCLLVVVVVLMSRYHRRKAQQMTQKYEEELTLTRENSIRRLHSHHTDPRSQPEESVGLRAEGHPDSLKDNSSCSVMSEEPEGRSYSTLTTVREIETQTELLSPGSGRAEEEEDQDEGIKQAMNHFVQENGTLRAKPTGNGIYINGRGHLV
Method: Test Example 1. Binding Capacity Test of the Compounds of the Present Invention to Nectin-4 Protein
To detect the affinity of the compound to be tested to the target protein Nectin-4 using the SPR method.
• Biacore 8K (GE Healthcare) • 96-well Plate (Cat #650101, greiner bio-one) • CM5 chip (Cat #BR-1005-30, GE Healthcare) • Amine Coupling Kit (Cat #BR-1000-50, GE Healthcare) • EDC • NHS • 1 M ethanolamine • 10 mM sodium acetate pH 4.5 (Cat #BR-1003-50, GE Healthcare) • DMSO (Cat #D4540, Sigma) • P20 (Cat #BR-1000-54, GE Healthcare) • PBS (Cat #BR-1006-72, GE Healthcare) • Nectin-4 (Cat #1006-72, GE Healthcare) 3. Experimental Protocol
In this experiment, the amino coupling method was used. The target protein Nectin-4 was directly immobilized on the CM5 chip using Biacore 8K. […] The final data were subjected to Kinetics fitting analysis based on a 1:1 model using Biacore Insight Evaluation Software (V 2.0.15.12933).
1) Preparation of the buffer: 10 mM PBS, pH 7.4, 137 mM NaCl, 2.7 mM KCl, 5% DMSO, and 0.05% P20.
2) Activation of the CM5 chip: The CM5 chip was activated with 400 mM EDC and 100 mM NHS at a flow rate of 10 μL/min for 420 seconds.
3) Coupling of the target protein: The target protein was diluted to 10 μg/mL with 10 mM sodium acetate (pH 4.5) and coupled at a flow rate of 10 μL/min for 284 s. The 1 #, 2 #, and 3 #channels on the chip were used in the experiment, and the coupling results were 1639.9RU, 1747.8RU, and 1702.2RU, respectively.
4) Blocking of the CM5 chip: The CM5 chip was blocked with 1 M ethanolamine at a flow rate of 10 μL/min for 420 seconds.
5) Analyte concentration: The compound to be tested was diluted with the buffer. The compound to be tested was diluted from 100 nM to 0.78 nM in a 2-fold gradient.
6) Sample injection analysis: Each concentration of the working solution of the compound to be tested corresponded to one cycle, with a flow rate of 30 μL/min for binding for 180 seconds and dissociating for 180 seconds. The last cycle was a 5% DMSO solvent correction cycle.
7) All results were subjected to kinetics fitting analysis based on a 1:1 model. […]

[4] = metabolite MMAE in SD rat plasma after single IV 3 mg/kg acetate salt of PDC_2

| Compound | exposure of metabolite MMAE relative to exposure of the compound ([1]; SD rats, single IV 3 mg/kg) | AUC0-last [1, 4] [µM·h] | Cmax [1, 4] [nM] | MMAE release in blood [2] | Kd [3] [nM] |
| --- | --- | --- | --- | --- | --- |
| CC[C@H](C)[C@@H]([C@@H](CC(=O)N1CCC[C@H]1[C@H](OC)[C@@H](C)C(=O)N[C@H](C)[C@@H](O)c1ccccc1)OC)N(C)C(=O)[C@@H](NC(=O)[C@@H](NC)C(C)C)C(C)C [MMAE, monomethyl auristatin E] (H-[NMeV]V[Dil][Dolaproine]-X1) | about 1/40 | 0.11 | 70 | lower MMAE release in blood than a detection limit |  |
| CC[C@H](C)[C@@H]([C@@H](CC(=O)N1CCC[C@H]1[C@H](OC)[C@@H](C)C(=O)N[C@H](C)[C@@H](O)c1ccccc1)OC)N(C)C(=O)[C@@H](NC(=O)[C@H](C(C)C)N(C)C(=O)OCc1ccc(NC(=O)[C@H](CCCNC(N)=O)NC(=O)[C@@H](NC(=O)CCCC(=O)NCCC(=O)N(C)CC(=O)N(C)CC(=O)N(C)CC(=O)N(C)CC(=O)N(C)CC(=O)N(C)CC(=O)N(C)CC(=O)N(C)CC(=O)N(C)CC(=O)N(C)CC(=O)N[C@H]2CCCCNC(=O)C[C@@H](C(=O)N[C@H]3CSCCC(=O)N4CN5CN(C4)C(=O)CCSC(C)(C)[C@H](NC(=O)[C@@H](CC(=O)O)NC(=O)[C@H](Cc4cccc6ccccc46)NC(=O)[C@@H]4CCCN4C3=O)C(=O)N[C@@H](CCSC)C(=O)N[C@@H](CCCCNC(=N)N)C(=O)N[C@@H](CC(=O)O)C(=O)N[C@@H](Cc3c[nH]c4ccccc34)C(=O)N[C@@H](CO)C(=O)N[C@@H]([C@@H](C)O)C(=O)N3CCC[C@H]3C(=O)N3C[C@H](O)C[C@H]3C(=O)N[C@@H](Cc3c[nH]c4ccccc34)C(=O)N[C@H](C(N)=O)CCSCCC5=O)NC(=O)CN(C)C2=O)C(C)C)cc1)C(C)C [Acetate salt of PDC_3] (I: [Sar][Sar][Sar][Sar][Sar][Sar][Sar][Sar][Sar][Sar]K[Sar]DCP[1Nal][dD][Pen]M[hArg]DWSTP[Hyp]W[hCys]-NH2 / II: V[Cit][PABC][NMeV]V[Dil][Dolaproine]-X1; lactam I:11-I:13; linker I:14-I:18-I:28 via TATA; linker I:N-II:N via X2) |  |  |  |  | 4.13 |
| CC[C@H](C)[C@@H]([C@@H](CC(=O)N1CCC[C@H]1[C@H](OC)[C@@H](C)C(=O)N[C@H](C)[C@@H](O)c1ccccc1)OC)N(C)C(=O)[C@@H](NC(=O)[C@H](C(C)C)N(C)C(=O)OCc1ccc(NC(=O)[C@H](CCCNC(N)=O)NC(=O)[C@@H](NC(=O)CCCC(=O)NCCC(=O)N(C)CC(=O)N(C)CC(=O)N(C)CC(=O)N(C)CC(=O)N(C)CC(=O)N(C)CC(=O)N(C)CC(=O)N(C)CC(=O)N(C)CC(=O)N(C)CC(=O)N[C@H]2CCCCNC(=O)C[C@@H](C(=O)N[C@H]3CSCCC(=O)N4CN5CN(C4)C(=O)CCSC(C)(C)[C@H](NC(=O)[C@@H](CC(=O)O)NC(=O)[C@H](Cc4cccc6ccccc46)NC(=O)[C@@H]4CCCN4C3=O)C(=O)N[C@@H](CCSC)C(=O)N[C@@H](CCCCNC(=N)N)C(=O)N[C@@H](CC(=O)O)C(=O)N[C@@H](Cc3c[nH]c4ccccc34)C(=O)N[C@@H](CO)C(=O)N[C@@H]([C@@H](C)O)C(=O)N3CCC[C@H]3C(=O)N3C[C@H](O)C[C@H]3C(=O)N[C@@H](Cc3c[nH]c4ccccc34)C(=O)N[C@H](C(N)=O)CSCCC5=O)NC(=O)[C@H](CCCCNC(=N)N)NC2=O)C(C)C)cc1)C(C)C [Acetate salt of PDC_1] (I: [Sar][Sar][Sar][Sar][Sar][Sar][Sar][Sar][Sar][Sar]K[hArg]DCP[1Nal][dD][Pen]M[hArg]DWSTP[Hyp]WC-NH2 / II: V[Cit][PABC][NMeV]V[Dil][Dolaproine]-X1; lactam I:11-I:13; linker I:14-I:18-I:28 via TATA; linker I:N-II:N via X2) |  |  |  |  | 1.4 |

From US12539335B2, “Tricyclic polypeptide conjugated drug and use thereof” (CONJUSTAR (ZHUHAI) BIOLOGICS CO., LTD., priority 2021, dated 2026)
